# From patent US20250041571A1, “DRUG COATED MEDICAL DEVICES” (Vanderbilt University, priority 2023, published 2025)
# Entries after “also recorded” stand apart in the source; their conditions may differ.
# Assays:
# [1] = Balloon loading and release quantification (3 min PBS soak, DMSO strip, fluorescence); format: physicochemical
# Experimental: Balloon loading and release quantification: Angioplasty balloons (2.5 mm×20 mm) were coated with PPAA and MK2i-568 and then soaked in PBS with calcium and magnesium for 3 minutes to measure balloon release. The balloons were then soaked again in DMSO under sonication for 3 minutes to remove any remaining MK2i layers. The fluorescence of the PBS and DMSO solutions was measured on a TECAN Infinite M1000 Pro plate reader and compared to a standard curve of MK2i-568 in PBS and DMSO, respectively.
# Balloon Loading and Release: Balloon release and total loading was quantified for different lactosucrose (LS) coating conditions. […] The fluorescence of these two solutions was then measured and used to quantify MK2i concentration (FIG. 5B and FIG. 5C).
# Increasing balloon loading and release: To increase the amount of MK2i loaded onto and released from the balloons, two strategies were compared. […] Loading and release were measured as before—3 min wash in PBS followed by sonication in DMSO. The solution fluorescence was measured to determine loading and release.
# Balloon loading and release quantification: Angioplasty balloons (2.5 mm×20 mm, Maverick OTW, Boston Scientific) were coated with PPAA and MK2i-568 and then soaked in PBS with calcium and magnesium for 3 minutes to measure balloon release. […]
# ex vivo rat aortas [2] = experiment: MK2i transfer from coated balloons to ex vivo rat aorta (confocal fluorescence, tissue lysate fluorescence); format: in vitro ADME
# Experimental: Aorta treatment: Harvested aortas were damaged with an angioplasty balloon prior to treatment (3×, 15 seconds each, 25% overstretch). Coated balloons were then inserted into the aorta and pressurized for 3 minutes in DMEM (+HEPES, +L-glutamine, +3% FBS, +1% Antibiotic/Antimycotic), with deflation and reinflation at each minute mark to allow for maximum release and tissue transfer. After 3 minutes, the balloon was deflated and removed. The treated artery was then washed briefly with DMEM to remove excess MK2i and then processed for further experimentation or data collection. […]
# Delivery visualization and quantification: Immediately after aorta treatment, samples were placed into OCT and frozen for cryosectioning. […] Then, total intensity of MK2i-568 within the arterial wall was calculated by subtracting the intensity of the inside segment from the intensity of the total segment. […]
# MK2i Delivery and Retention Quantification: Tissue lysates prepped for western blotting were measured for presence of fluorescently labeled MK2i to quantify tissue delivery and retention. Tissue lysate fluorescence was measured on a TECAN Infinite M1000 Pro plate reader and compared to a standard curve of fluorescent MK2i to calculate tissue MK2i concentration. […]
# [3] = system: cells of ex vivo rat aortas (isolated SMCs); experiment: Cellular uptake of fluorescent MK2i in treated rat aortas by flow cytometry; format: cell-based; conditions: flow cytometry 1 hour after treatment
# Experimental: Flow Cytometry: After aorta treatment, samples were incubated in DMEM (+HEPES, +L-glutamine, +3% FBS, +1% Antibiotic/Antimycotic) for 1 hour to allow for cell uptake. The aortas were subsequently transferred to 500 μL of cold PBS+1% FBS and cut with scissors into small (˜1 mm) sized pieces. Digestion media in DMEM was then added to the PBS/tissue tube (500 μL) to achieve a final enzyme concentration of 0.7 mg/mL liberase, 4 mg/mL collagenase, and 0.2 mg/mL DNase and the tubes were placed in a 37° C. incubator on a shaker for ˜90 minutes or until digestion was apparent. After incubation, the samples were filtered through a 70 μm cell strainer and centrifuged at 500 g for 8 minutes. […] Cells were read for fluorescence on a Guava easyCyte HT and the resulting data was processed in FlowJo.
# MK2i tissue transfer and cell uptake: Coated balloons (6 layers, 100 μM MK2i, 10 μM PPAA) were inflated in ex vivo rat aortas for 3 minutes and samples were cryosectioned to visualize fluorescent MK2i delivery (FIG. 9A, FIG. 9B, and FIG. 9C). ROIs were drawn around the vessel wall and total MK2i fluorescence was normalized to vessel wall cross sectional area. […] Cellular uptake was also measured with flow cytometry, quantifying cellular association of fluorescent MK2i within the treated tissue. […]
# ex vivo rat aortas [4] = experiment: Immunofluorescence of balloon damaged rat aortas after 7 d in flow loop bioreactor; format: cell-based; conditions: 7 d after balloon injury
Compound,MK2i release from balloon ([1]; 3 minutes in PBS),MK2i loading (comparison in words) ([1]; between coating conditions),MK2i transfer to the tissue (fluorescence in vessel wall) (ex vivo rat aortas [2]; immediately after 3 min balloon inflation),depth of MK2i delivery into the vessel wall (intensity profile) (ex vivo rat aortas [2]; immediately after balloon inflation),cellular / intracellular uptake of MK2i [3],MYH expression (ex vivo rat aortas [4]),SM22 expression (ex vivo rat aortas [4])
"OC[C@H]1O[C@@H](O[C@H]2[C@H](O)[C@@H](O)[C@@H](O[C@]3(CO)O[C@H](CO)[C@@H](O)[C@@H]3O)O[C@@H]2CO)[C@H](O)[C@@H](O)[C@H]1O [LS, lactosucrose]",did not yield any differences,did not yield any differences,benefited; also recorded: increased MK2i transfer to the tissue,modest effect on increasing the depth of delivery,benefited; also recorded: significantly increased the intracellular uptake,–,–
MAPKAP Kinase II inhibitory peptide [MK2i],–,–,–,–,–,preserving expression,preserving expression
